Data as given in ChEMBL document CHEMBL1201862, “PubChem BioAssay data set” (2004).
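Following 48 hours of exposure in 96-well plates, responses at five concentrations were used to interpolate endpoints linearly. GI50 marks 50% less growth.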 The source made the active and inactive calls. No stated cut-off is given here; in the data, active = GI50 up to about 1.1 µM and inactive = higher.

Tests used:
Experiment in all cases: NCI anticancer screen, dose series, 48 h
ACHN = tested on: ACHN
BT-549 = tested on: BT-549
HCC 2998 = tested on: HCC 2998
HCT-116 = tested on: HCT-116
HCT-15 = tested on: HCT-15
HOP-92 = tested on: HOP-92
Hs-578T = tested on: Hs-578T
IGROV-1 = tested on: IGROV-1
K562 = tested on: K562
M14 = tested on: M14
Malme-3M = tested on: Malme-3M
NCI-H226 = tested on: NCI-H226
NCI-H23 = tested on: NCI-H23
RXF 393 = tested on: RXF 393
SK-OV-3 = tested on: SK-OV-3
SW-620 = tested on: SW-620
U-251 = tested on: U-251
UACC-62 = tested on: UACC-62
OVCAR-4 = tested on: OVCAR-4

Compound | GI50 (ACHN) | GI50 (BT-549) | GI50 (HCC 2998) | GI50 (HCT-116) | GI50 (HCT-15) | GI50 (HOP-92) | GI50 (Hs-578T) | GI50 (IGROV-1) | GI50 (K562) | GI50 (M14) | GI50 (Malme-3M) | GI50 (NCI-H226) | GI50 (NCI-H23) | GI50 (RXF 393) | GI50 (SK-OV-3) | GI50 (SW-620) | GI50 (U-251) | GI50 (UACC-62) | GI50 (OVCAR-4)
Cc1ccc(NC(S)=Nc2c(C)n(C)n(-c3ccccc3)c2=O)cc1 | > 100 µM (inactive) | > 100 µM (inactive) | > 100 µM (inactive) | > 100 µM (inactive) | > 100 µM | > 100 µM (inactive) | > 100 µM (inactive) | > 100 µM (inactive) | > 100 µM (inactive) | > 100 µM (inactive) | > 100 µM (inactive) | > 100 µM (inactive) | > 100 µM (inactive) | > 100 µM (inactive) | > 100 µM (inactive) | > 100 µM (inactive) | > 100 µM (inactive) | > 100 µM (inactive) | –
Cc1sc(NC=C2C(=O)CC(C)(C)CC2=O)nc1-c1ccccc1 | > 100 µM (inactive) | > 100 µM (inactive) | > 100 µM (inactive) | > 100 µM (inactive) | > 100 µM | > 100 µM (inactive) | > 100 µM (inactive) | > 100 µM (inactive) | > 100 µM (inactive) | > 100 µM (inactive) | – | > 100 µM (inactive) | > 100 µM (inactive) | > 100 µM (inactive) | > 100 µM (inactive) | > 100 µM (inactive) | > 100 µM (inactive) | > 100 µM (inactive) | > 100 µM (inactive)
CNC(=S)/C(=N\Nc1[nH]cnc1C(N)=O)C(N)=S | 5.32 µM (inactive) | 29.9 µM (inactive) | 1.99 µM (inactive) | 3.52 µM (inactive) | 15.1 µM | 3 µM (inactive) | 9.14 µM (inactive) | 3.56 µM (inactive) | 0.444 µM (active) | 1.1 µM (active) | 1.1 µM (active) | 5.73 µM (inactive) | 17.3 µM (inactive) | > 100 µM (inactive) | 1.51 µM (inactive) | 3.78 µM (inactive) | 30.3 µM (inactive) | 3.22 µM (inactive) | 4.17 µM (inactive)
CC1CC[C@@]2(OC1)OC1C[C@H]3[C@@H]4CCC5CC(O)CC[C@]5(C)[C@H]4C/C(=N\N(C)C)[C@]3(C)C1[C@@H]2C (some centres not stated) | 30.3 µM (inactive) | 29.4 µM (inactive) | 19.1 µM (inactive) | 23.3 µM (inactive) | 23.4 µM | 52.8 µM (inactive) | 28.6 µM (inactive) | 28.7 µM (inactive) | 28.2 µM (inactive) | 32.3 µM (inactive) | 33.1 µM (inactive) | 34.2 µM (inactive) | 20.3 µM (inactive) | 16.3 µM (inactive) | 18.7 µM (inactive) | 40.3 µM (inactive) | 31 µM (inactive) | 27.6 µM (inactive) | 38.3 µM (inactive)
COc1ccccc1C(O)[C@@H]1C[C@@H]2[C@H]3CC[C@@](C)([C@@H]2O1)C3(C)C (some centres not stated) | 19.1 µM (inactive) | 18.1 µM (inactive) | 20.8 µM (inactive) | 20.5 µM (inactive) | 20.7 µM | 15.8 µM (inactive) | 14.7 µM (inactive) | 15.9 µM (inactive) | 21.3 µM (inactive) | 21.4 µM (inactive) | 15 µM (inactive) | – | 19.5 µM (inactive) | 17.4 µM (inactive) | 27.4 µM (inactive) | 16.1 µM (inactive) | 16.5 µM (inactive) | 16.6 µM (inactive) | –
CC1(C)N=[N+]([O-])C1(C)C | – | > 100 µM (inactive) | > 100 µM (inactive) | > 100 µM (inactive) | > 100 µM | – | > 100 µM (inactive) | > 100 µM (inactive) | > 100 µM (inactive) | > 100 µM (inactive) | > 100 µM (inactive) | > 100 µM (inactive) | > 100 µM (inactive) | > 100 µM (inactive) | > 100 µM (inactive) | > 100 µM (inactive) | > 100 µM (inactive) | > 100 µM (inactive) | > 100 µM (inactive)
CN1C(=O)C(/C=N/NC(=O)c2cccnc2)C(N)N(C)C1=O (configuration not stated) | > 100 µM (inactive) | > 100 µM (inactive) | > 100 µM (inactive) | > 100 µM (inactive) | > 100 µM | – | > 100 µM (inactive) | > 100 µM (inactive) | > 100 µM (inactive) | > 100 µM (inactive) | > 100 µM (inactive) | > 100 µM (inactive) | > 100 µM (inactive) | > 100 µM (inactive) | > 100 µM (inactive) | > 100 µM (inactive) | > 100 µM (inactive) | > 100 µM (inactive) | > 100 µM (inactive)
CN1CCc2c3n(c4cc(Br)ccc24)[C@H](O)CCCC31 (some centres not stated) | > 10 µM (inactive) | > 10 µM (inactive) | 1.75 µM (inactive) | 1.69 µM (inactive) | 2.62 µM | 3.61 µM (inactive) | 2.15 µM (inactive) | > 7.11 µM (inactive) | 1.37 µM (inactive) | 1.79 µM (inactive) | 2.04 µM (inactive) | > 10 µM (inactive) | > 10 µM (inactive) | 2.59 µM (inactive) | > 10 µM (inactive) | 1.96 µM (inactive) | 1.85 µM (inactive) | – | 2.67 µM (inactive)
S=C1NC2=C(COC/C2=C\c2ccccc2Cl)C(c2ccccc2Cl)N1 (configuration not stated) | 34.4 µM (inactive) | 48.8 µM (inactive) | 6.98 µM (inactive) | 17.5 µM (inactive) | 16.8 µM | 36.4 µM (inactive) | > 100 µM (inactive) | 39.1 µM (inactive) | 14.9 µM (inactive) | 25.8 µM (inactive) | – | 27.4 µM (inactive) | 34.9 µM (inactive) | 33.3 µM (inactive) | > 100 µM (inactive) | 25.5 µM (inactive) | 25.1 µM (inactive) | 65.3 µM (inactive) | 31.3 µM (inactive)
CN(C)Cc1cc(/N=N/c2ccc(Cl)c(Cl)c2)ccc1O | 4.44 µM (inactive) | 13.8 µM (inactive) | 12.1 µM (inactive) | 14.4 µM (inactive) | 6.5 µM | 3.3 µM (inactive) | 6.03 µM (inactive) | 3.4 µM (inactive) | 2.61 µM (inactive) | 16 µM (inactive) | 15.6 µM (inactive) | 17.9 µM (inactive) | 13.6 µM (inactive) | 1.48 µM (inactive) | – | 11.1 µM (inactive) | 11.5 µM (inactive) | 5.96 µM (inactive) | 7.28 µM (inactive)
COC(=O)CCC(C)C1CCC2C3C(C[C@H](OC(C)=O)[C@]12C)[C@@]1(C)CCC2(C[C@H]1C[C@H]3OC(C)=O)OOC1(CC[C@]3(C)C4C[C@H](OC(C)=O)[C@]5(C)C(C(C)CCC(=O)OC)CCC5C4[C@H](OC(C)=O)C[C@@H]3C1)OO2 (some centres not stated) | 33.5 µM (inactive) | 97.3 µM (inactive) | > 100 µM (inactive) | > 100 µM (inactive) | > 100 µM | – | > 100 µM (inactive) | > 100 µM (inactive) | > 100 µM (inactive) | > 100 µM (inactive) | > 100 µM (inactive) | 66.8 µM (inactive) | 84.7 µM (inactive) | > 100 µM (inactive) | > 100 µM (inactive) | > 100 µM (inactive) | 45.1 µM (inactive) | – | > 100 µM (inactive)
